Assay results: PMC5908784, “Extracellular loops 2 and 3 of the calcitonin receptor selectively modify agonist binding and efficacy” (Biochemical Pharmacology, 2018)
Numbering of substitutions follows the chain as printed. Read-outs that look alike come from different tables or passages of the source. Where a SMILES comes first, the peptide text is derived from it. Bridges are numbered along the chain shown (N, C = ends).

Columns and labels:
Assay in all cases: cAMP accumulation
Assay type in all cases: cell-based
hCTR H296A = target: T1, hCTR H296A (Homo sapiens, UniProt P30988, H296A); conditions: mean ± S.E.M.; for Emax: cAMP maximal response, SEM; for EC50: cAMP, CV1-FlpIn cells, 30 min, IBMX
T1 construct: c-Myc (N); expressed in transfected cells
T1 sequence (P30988 25-474 H296A): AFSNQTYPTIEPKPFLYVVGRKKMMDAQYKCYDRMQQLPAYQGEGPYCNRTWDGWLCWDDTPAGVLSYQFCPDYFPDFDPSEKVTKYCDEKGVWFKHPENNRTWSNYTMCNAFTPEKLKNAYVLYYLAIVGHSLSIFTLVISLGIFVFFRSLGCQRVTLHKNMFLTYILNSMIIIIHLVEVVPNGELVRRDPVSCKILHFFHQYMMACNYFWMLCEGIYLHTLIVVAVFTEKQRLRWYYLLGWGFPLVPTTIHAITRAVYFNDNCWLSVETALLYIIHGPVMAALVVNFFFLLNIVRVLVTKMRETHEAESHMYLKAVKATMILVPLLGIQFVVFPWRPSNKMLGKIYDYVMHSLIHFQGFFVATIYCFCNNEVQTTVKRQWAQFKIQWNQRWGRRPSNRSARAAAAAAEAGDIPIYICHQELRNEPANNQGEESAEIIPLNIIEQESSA
Method in brief: (§1)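 Plated cells were incubated overnight and then challenged with rising ligand concentrations for 30 min alongside IBMX. Medium was replaced by absolute ethanol, which was evaporated at room temperature before cAMP determination. Values are normalized to 100 μM forskolin.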

hCTR W361A = target: T2, hCTR W361A (Homo sapiens, UniProt P30988, W361A); conditions: mean ± S.E.M.; for Emax: cAMP maximal response, SEM; for EC50: cAMP, CV1-FlpIn cells, 30 min, IBMX
T2 construct: expressed in transfected cells
T2 sequence (P30988 25-474 W361A): T1 sequence (P30988 25-474 H296A) with A272H, W337A
Method in brief: as §1

hCTR V293A = target: T3, hCTR V293A (Homo sapiens, UniProt P30988, V293A); conditions: mean ± S.E.M.; for Emax: cAMP maximal response, SEM; for EC50: cAMP, CV1-FlpIn cells, 30 min, IBMX
T3 construct: c-Myc (N); expressed in transfected cells
T3 sequence (P30988 25-474 V293A): T1 sequence (P30988 25-474 H296A) with V269A, A272H
Method in brief: as §1

hCTR R362A = target: T4, hCTR R362A (Homo sapiens, UniProt P30988, R362A); conditions: for Emax: read-out: Emax (% WT), SEM; for EC50: cAMP, CV1-FlpIn cells, 30 min, IBMX
T4 construct: expressed in transfected cells
T4 sequence (P30988 25-474 R362A): T1 sequence (P30988 25-474 H296A) with A272H, R338A
Method in brief: as §1

hCTR D287A = target: T5, hCTR D287A (Homo sapiens, UniProt P30988, D287A); conditions: mean ± S.E.M.; for Emax: cAMP maximal response, SEM
T5 construct: c-Myc (N); expressed in transfected cells
T5 sequence (P30988 25-474 D287A): T1 sequence (P30988 25-474 H296A) with D263A, A272H
Method in brief: as §1

[1] = R362A, cAMP maximal response, mean ± S.E.M.

Row | SMILES | Emax (hCTR H296A) [%] | Emax (hCTR W361A) [%] | Emax (hCTR V293A) [%] | Emax (hCTR R362A) [%] | Emax (hCTR D287A) [%] | EC50 (hCTR H296A) [nM] | EC50 (hCTR W361A) [nM] | EC50 (hCTR V293A) [nM] | Emax (hCTR R362A; [1]) [%] | EC50 (hCTR R362A; R362A, mean ± S.E.M.) [nM] | EC50 (hCTR D287A; cAMP, CV1-FlpIn cells, 30 min, IBMX) [nM]
1 | CC(C)C[C@H](NC(=O)[C@H](CC(N)=O)NC(=O)[C@H](CC(N)=O)NC(=O)[C@H](CO)NC(=O)[C@H](CO)NC(=O)[C@H](CCCNC(=N)N)NC(=O)[C@@H](NC(=O)[C@H](CC(C)C)NC(=O)[C@H](Cc1ccccc1)NC(=O)[C@H](CC(N)=O)NC(=O)[C@H](C)NC(=O)[C@H](CC(C)C)NC(=O)[C@H](CCCNC(=N)N)NC(=O)[C@H](CCC(N)=O)NC(=O)[C@@H](NC(=O)[C@H](C)NC(=O)[C@@H]1CSSC[C@H](NC(=O)[C@@H](N)CCCCN)C(=O)N[C@@H](CC(N)=O)C(=O)N[C@@H]([C@@H](C)O)C(=O)N[C@@H](C)C(=O)N[C@@H]([C@@H](C)O)C(=O)N1)[C@@H](C)O)C(C)C)C(=O)NCC(=O)N1CCC[C@H]1C(=O)N[C@H](C(=O)N[C@@H](CC(C)C)C(=O)N1CCC[C@H]1C(=O)N1CCC[C@H]1C(=O)N[C@H](C(=O)N[C@@H](CC(N)=O)C(=O)N[C@H](C(=O)NCC(=O)N[C@@H](CO)C(=O)N[C@@H](CC(N)=O)C(=O)N[C@H](C(=O)N[C@@H](Cc1ccc(O)cc1)C(N)=O)[C@@H](C)O)C(C)C)[C@@H](C)O)C(C)C [rAmy] | 107 ± 18 | 102 ± 13 | 91 ± 10 | 88 ± 12 |  |  |  |  |  |  | 
2 | CC[C@H](C)[C@H](NC(=O)[C@H](C)NC(=O)[C@@H](NC(=O)[C@H](CCC(N)=O)NC(=O)[C@@H]1CCCN1C(=O)[C@H](Cc1ccccc1)NC(=O)[C@@H](NC(=O)[C@H](Cc1c[nH]cn1)NC(=O)[C@H](Cc1ccccc1)NC(=O)[C@H](CCCCN)NC(=O)[C@H](CC(N)=O)NC(=O)[C@H](Cc1ccccc1)NC(=O)[C@H](CC(=O)O)NC(=O)[C@H](CCC(N)=O)NC(=O)[C@@H](NC(=O)[C@H](Cc1ccc(O)cc1)NC(=O)[C@@H](NC(=O)CNC(=O)[C@H](CC(C)C)NC(=O)[C@H](CCSC)NC(=O)[C@@H]1CSSC[C@H](N)C(=O)NCC(=O)N[C@@H](CC(N)=O)C(=O)N[C@@H](CC(C)C)C(=O)N[C@@H](CO)C(=O)N[C@@H]([C@@H](C)O)C(=O)N1)[C@@H](C)O)[C@@H](C)O)[C@@H](C)O)[C@@H](C)O)C(=O)NCC(=O)N[C@H](C(=O)NCC(=O)N[C@@H](C)C(=O)N1CCC[C@H]1C(N)=O)C(C)C [hCT] | 87 ± 4 | 132 ± 9 | 123 ± 8 | 125 ± 9 | 140 ± 18 |  |  |  |  |  | 
3 | CC(C)C[C@H](NC(=O)CNC(=O)[C@H](C)NC(=O)[C@H](CC(C)C)NC(=O)[C@H](CCCNC(=N)N)NC(=O)[C@H](Cc1cnc[nH]1)NC(=O)[C@@H](NC(=O)[C@@H](NC(=O)[C@@H]1CSSC[C@H](NC(=O)[C@H](C)N)C(=O)N[C@@H](CC(=O)O)C(=O)N[C@@H]([C@@H](C)O)C(=O)N[C@@H](C)C(=O)N[C@@H]([C@@H](C)O)C(=O)N1)C(C)C)[C@@H](C)O)C(=O)N[C@@H](CC(C)C)C(=O)N[C@@H](CO)C(=O)N[C@@H](CCCNC(=N)N)C(=O)N[C@@H](CO)C(=O)NCC(=O)NCC(=O)N[C@H](C(=O)N[C@H](C(=O)N[C@@H](CCCCN)C(=O)N[C@@H](CC(N)=O)C(=O)N[C@@H](CC(N)=O)C(=O)N[C@@H](Cc1ccccc1)C(=O)N[C@H](C(=O)N1CCC[C@H]1C(=O)N[C@H](C(=O)N[C@@H](CC(N)=O)C(=O)N[C@H](C(=O)NCC(=O)N[C@@H](CO)C(=O)N[C@@H](CCCCN)C(=O)N[C@@H](C)C(=O)N[C@@H](Cc1ccccc1)C(N)=O)C(C)C)[C@@H](C)O)C(C)C)C(C)C)C(C)C [hαCGRP] | 106 ± 18 | 102 ± 16 | 153 ± 17 |  |  | 14.1 | 97.7 | 8.71 | 51 ± 9 | 17.8 | 
4 | CC(C)C[C@H](NC(=O)[C@H](CCCCN)NC(=O)CNC(=O)[C@H](CC(C)C)NC(=O)[C@@H](NC(=O)[C@@H]1CSSC[C@H](N)C(=O)N[C@@H](CO)C(=O)N[C@@H](CC(N)=O)C(=O)N[C@@H](CC(C)C)C(=O)N[C@@H](CO)C(=O)N[C@@H]([C@@H](C)O)C(=O)N1)C(C)C)C(=O)N[C@@H](CO)C(=O)N[C@@H](CCC(N)=O)C(=O)N[C@@H](CCC(=O)O)C(=O)N[C@@H](CC(C)C)C(=O)N[C@@H](Cc1c[nH]cn1)C(=O)N[C@@H](CCCCN)C(=O)N[C@@H](CC(C)C)C(=O)N[C@@H](CCC(N)=O)C(=O)N[C@H](C(=O)N[C@@H](Cc1ccc(O)cc1)C(=O)N1CCC[C@H]1C(=O)N[C@@H](CCCNC(=N)N)C(=O)N[C@H](C(=O)N[C@@H](CC(N)=O)C(=O)N[C@H](C(=O)NCC(=O)N[C@@H](CO)C(=O)NCC(=O)N[C@H](C(=O)N1CCC[C@H]1C(N)=O)[C@@H](C)O)[C@@H](C)O)[C@@H](C)O)[C@@H](C)O [sCT] | 86 ± 5 | 126 ± 7 | 112 ± 11 | 95 ± 4 | 119 ± 7 |  |  |  |  |  | 
5 | CSCC[C@H](NC(=O)CNC(=O)[C@H](CO)NC(=O)[C@H](Cc1ccccc1)NC(=O)[C@H](CCCNC(=N)N)NC(=O)[C@H](Cc1c[nH]cn1)NC(=O)[C@H](Cc1ccccc1)NC(=O)[C@H](CC(N)=O)NC(=O)[C@H](CC(N)=O)NC(=O)[C@H](CC(C)C)NC(=O)[C@H](CC(N)=O)NC(=O)[C@H](CCCNC(=N)N)NC(=O)[C@H](Cc1c[nH]c2ccccc12)NC(=O)[C@H](Cc1ccc(O)cc1)NC(=O)[C@H](C)NC(=O)[C@H](CO)NC(=O)[C@H](CC(C)C)NC(=O)[C@@H](NC(=O)[C@@H]1CSSC[C@H](N)C(=O)N[C@@H](CO)C(=O)N[C@@H](CC(N)=O)C(=O)N[C@@H](CC(C)C)C(=O)N[C@@H](CO)C(=O)N[C@@H]([C@@H](C)O)C(=O)N1)C(C)C)C(=O)NCC(=O)N[C@@H](Cc1ccccc1)C(=O)NCC(=O)N1CCC[C@H]1C(=O)N[C@@H](CCC(=O)O)C(=O)N[C@H](C(=O)N1CCC[C@H]1C(N)=O)[C@@H](C)O [pCT] (H-CSNLSTCVLSAYWRNLNNFHRFSGMGFGPETP-NH2; disulfide 1-7) | 96 ± 8 | 133 ± 9 | 107 ± 5 |  | 74 ± 9 | 0.0316 | 0.148 | 0.0501 | 138 ± 9 | 0.182 | 1.91
